“And” between values parts separate entries of the source, which are not always exact repeats. Equal entries are not always repeated. Where two headings read alike, the source gives them in different places.
Key:
CNXF 498 [1] = assay: CellTiter-Blue Cell Viability Assay (Example 2), glioblastoma; assay type: cell-based, human; conditions: for T/C %: 72 h
Excerpt: (§1) The CellTiter-Blue® Cell Viability Assay was used to assess the viability of cells from various cancer cell lines, in the presence or absence of Compound 85 (at different concentrations). This assay provides a homogeneous, fluorometric method for estimating the number of viable cells present in multi-well plates. Viable cells retain the ability to reduce resazurin to resorufin, which is highly fluorescent. […] The fluorescence produced is proportional to the number of viable cells. There is a linear relationship between cell number and fluorescence.
(§2) Cancer cells (see Table 6) were harvested from exponential phase cultures, counted and plated in 96 well flat-bottom microtiter plates, at a cell density 6,000-20,000 cells/well, depending on the cell line's growth rate. The culture medium was supplemented with 10% (v/v) foetal calf serum and 50 μg/mL gentamicin (140 μL/well). Cultures were incubated at 37° C. and 5% CO2 in a humidified atmosphere.
(§3) Compound 85 was serially diluted in DMSO, and five Compound 85 concentrations in half-log increments were used: 0.03 μM, 0.09 μM, 0.30 μM, 1.0 μM, and 3.0 μM. After 24 h, 10 μL of Compound 85 (dissolved in DMSO) or control (DMSO) medium were added, in duplicates, and left on the cells for another 72 h. Compound 85 solutions were added to the assay plates using a Tecan Freedom EVO 200 robotic platform. The DMSO concentration was kept constant at 0.3% v/v across the assay plate.
(§4) After incubation of up to 72 hours, fluorescence (FU) was measured using the EnSpire® multimode plate reader (Perkin Elmer) (excitation λ=570 nm, emission λ=600 nm).
(§5) Cancer cell lines used: Compound 85's anti-cancer effect was tested in 20 human cancer-cell lines representing nine cancer types (Table 6).
(§6) The percentage of viable cells in the presence of Compound 85 (Test condition, T), at different concentrations, are presented in Table 7 and expressed as a percentage of the number of viable cells in the presence of DMSO without Compound 85 (Control condition, C).
(§7) The relative IC50 is determined as the Compound 85 concentration giving a response halfway between the maximum cell viability signal (i.e., a 100% cell viability, no Compound 85 response) and the minimal viability signal (i.e. maximum cell viability inhibition achieved by Compound 85), in a sigmoidal concentration-effect curve.
(§8) The absolute IC50 is determined as the concentration that is associated with a T/C ratio of 50%.

CNXF U-87 MG = assay: as above; assay type: cell-based, human; conditions: for T/C %: 72 h
Excerpt: as §1, §2, §3, §4, §5, §6, §7, §8

[2] = system: 20 human cancer-cell lines representing nine cancer types; assay: CellTiter-Blue Cell Viability Assay (Example 2), whole panel; assay type: cell-based
Excerpt: as §1, §2, §3, §4, §5, §6, §7, §8

PAXF 1657 = assay: CellTiter-Blue 2D monolayer assay (Example 1), pancreas; assay type: cell-based, human; conditions: for Test/Control (%): 72 h
Description: (§9) Compound 85 was assessed in 10 human tumor cell lines (see Table 3) for anti-cancer activity in vitro using a CellTiter-Blue® based 2D monolayer assay.
(§10) CellTiter-Blue® Cell Viability Assay: Tumor cells were grown at 37° C. in a humidified atmosphere with 5% CO2 in RPMI medium, supplemented with 10% (v/v) fetal calf serum and 50 μg/ml gentamicin (140 μl/well). Cultures were incubated at 37° C. and 5% CO2 in a humidified atmosphere. After 24 hours, 10 μl of Compound 85 was added, and left on the cells for another 72 hours (incubation period). Compound 85 was tested at 5 concentrations (0.003 μM, 0.03 μM, 0.3 μM, 3 μM, and 30 μM) and serially diluted in DMSO, mixed with cell culture medium, and added to the assay plates by using a Tecan Freedom EVO 200 robotic platform. The DMSO concentration was kept constant at 0.3% yip across the assay plate. Every 96 well plate included six DMSO-treated control wells and Compound 85-treated wells in duplicate at 5 concentrations. Viability of cells was quantified using the CellTiter-Blue® cell viability assay (Promega G8081). After incubation of cells, the CellTiter-Blue® reagent was brought to ambient temperature. Next, 20 μl of CellTiter-Blue® reagent were added to each well. After incubation tier up to 4 hours, fluorescence (FU) was measured using the EnSpire® multimode plate reader (Perkin Elmer) ([…]).
(§11) Data Evaluation: Sigmoidal concentration-response curves were fitted to the data points (test-versus-control; T/C values) obtained for each tumor model using 4 parameter non-linear curve fit (Charles River DRS Datawarehouse Software). Drug effects are expressed in terms of the percentage of the fluorescence signal, obtained by comparison of the mean signal in the treated wells with the mean signal of the untreated controls (T/C-value [%]) (Table 4). IC50 and IC70 values were reported as relative and absolute IC50 and IC70 values (Table 5). The absolute IC50 and IC70 values reflect the concentration of Compound 85 that achieves T/C=50% and T/C=30%, respectively. The relative IC50 value is the concentration of Compound 85 that gives a response half way between the top and bottom plateau of the sigmoidal concentration-response curve (inflection point of the curve).

PAXF HUP-T3 = assay: as above; assay type: cell-based, human; conditions: for Test/Control (%): 72 h
Description: as §9, §10, §11

CNXF 498 [3] = assay: CellTiter-Blue 2D monolayer assay (Example 1), glioblastoma; assay type: cell-based, human; conditions: for Test/Control (%): 72 h
Description: as §9, §10, §11

[4] = geometric mean over human cancer cell lines of Table 8

Structure (SMILES): CC(C)(O)Cn1nc(-c2ccccc2)c2c(Cl)c(-c3ccccc3)nnc21 [Compound 85]
- Absolute IC70 (CNXF 498 [1]): 1901 nM
- Relative IC70 (CNXF 498 [1]): 1868 nM
- T/C % (CNXF 498 [1]; 0.03 μM): 106%
- T/C % (CNXF 498 [1]; 0.095 μM): 107%
- T/C % (CNXF 498 [1]; 0.3 μM): 113%
- T/C % (CNXF 498 [1]; 0.95 μM): 2%
- T/C % (CNXF 498 [1]; 3.0 μM): 1%
- IC50 (CNXF 498 [1]; read-out: Absolute IC50): 1740 nM
- IC50 (CNXF 498 [1]; read-out: Relative IC50): 1710 nM
- Absolute IC70 (CNXF U-87 MG): 993.8 nM
- Relative IC70 (CNXF U-87 MG): 986.9 nM
- T/C % (CNXF U-87 MG; 0.03 μM): 99%
- T/C % (CNXF U-87 MG; 0.095 μM): 102%
- T/C % (CNXF U-87 MG; 0.3 μM): 102%
- T/C % (CNXF U-87 MG; 0.95 μM): 1%
- T/C % (CNXF U-87 MG; 3.0 μM): 4%
- IC50 (CNXF U-87 MG; read-out: Absolute IC50): 940 nM
- IC50 (CNXF U-87 MG; read-out: Relative IC50): 935 nM
- anti-cancer activity, concentration dependence ([2]; all of the 20 human cancer cell lines tested): concentration dependent anti-cancer activity
- anti-cancer activity ([2]; at concentration of 0.95 μM, 20 human cancer-cell lines, nine cancer types): significant anti-cancer activity
- geometric mean absolute IC70 [2, 4]: 712 nM
- geometric mean relative IC70 [2, 4]: 675 nM
- IC50 ([2]; geometric mean over human cancer cell lines of Table 8, read-out: geometric mean absolute IC50): 596 nM and 600 nM
- IC50 ([2]; geometric mean over human cancer cell lines of Table 8, read-out: geometric mean relative IC50): 583 nM
- Rel. IC70 (PAXF 1657): 2043 nM
- Test/Control (%) (PAXF 1657; 0.003 μM): 100%
- Test/Control (%) (PAXF 1657; 0.03 μM): 100%
- Test/Control (%) (PAXF 1657; 0.3 μM): 100%
- Test/Control (%) (PAXF 1657; 3 μM): 3%
- Test/Control (%) (PAXF 1657; 30 μM): 1%
- Abs. IC70 (PAXF 1657; T/C=30%): 2055 nM
- IC50 (PAXF 1657; T/C=50%, read-out: Abs. IC50): 1850 nM
- Bot. (%) (PAXF 1657; bottom plateau of curve): 1%
- IC50 (PAXF 1657; read-out: Rel. IC50): 1840 nM
- Top (%) (PAXF 1657; top plateau of curve): 100%
- Rel. IC70 (PAXF HUP-T3): 1505 nM
- Test/Control (%) (PAXF HUP-T3; 0.003 μM): 100%
- Test/Control (%) (PAXF HUP-T3; 0.03 μM): 101%
- Test/Control (%) (PAXF HUP-T3; 0.3 μM): 79%
- Test/Control (%) (PAXF HUP-T3; 3 μM): 16%
- Test/Control (%) (PAXF HUP-T3; 30 μM): 6%
- Abs. IC70 (PAXF HUP-T3; T/C=30%): 1518 nM
- IC50 (PAXF HUP-T3; T/C=50%, read-out: Abs. IC50): 794 nM
- Bot. (%) (PAXF HUP-T3; bottom plateau of curve): 0%
- IC50 (PAXF HUP-T3; read-out: Rel. IC50): 785 nM
- Top (%) (PAXF HUP-T3; top plateau of curve): 101%
- Rel. IC70 (CNXF 498 [3]): 1868 nM
- Test/Control (%) (CNXF 498 [3]; 0.003 μM): 106%
- Test/Control (%) (CNXF 498 [3]; 0.03 μM): 107%
- Test/Control (%) (CNXF 498 [3]; 0.3 μM): 113%
- Test/Control (%) (CNXF 498 [3]; 3 μM): 2%
- Test/Control (%) (CNXF 498 [3]; 30 μM): 1%
- Abs. IC70 (CNXF 498 [3]; T/C=30%): 1901 nM
- IC50 (CNXF 498 [3]; T/C=50%, read-out: Abs. IC50): 1740 nM
- Bot. (%) (CNXF 498 [3]; bottom plateau of curve): 1%
- IC50 (CNXF 498 [3]; read-out: Rel. IC50): 1710 nM
- Top (%) (CNXF 498 [3]; top plateau of curve): 109%

Source: US12544373B2, “Treatment of cancer, inflammatory diseases and autoimmune diseases” (Usher III Initiative, Inc., priority 2020, dated 2026)
